According to US7560473B2 (Institute of Pharmacology and Toxicology Academy of …, priority 2001, dated 2009):

Legend:
[1] = system: spontaneously hypertensive rats; experiment: Acute antihypertensive effects in conscious spontaneously hypertensive rats; format: in vivo; settings: po mg/kg: compound 1 3, pinacidil 3, nifedipine 10, bisoprolol 60, captopril 40, means ± SD, 9-13 rats; for heart rates at 1 h / heart rates at 3 h / heart rates at 5 h / heart rates at 9 h / heart rates at 12 h / heart rates at 24 h / heart rates base value: in bpm (unit assumed); for SBP base value / heart rates base value: base value before administration
From the text: Biological activity experiment 2. The acute antihypertensive effects of compound 1 in conscious spontaneously hypertensive rats.
The methods of biological activity experiment 2 were described by Long Chao-Liang et al: Long Chao-Liang, Wang Hai, Xiao Wen-Bin. Effects of pinacidil on, hypertensive vascular remodeling. Chin J Pharmacol Toxicol 1997; 11(1):42-46.

[2] = system: rats anesthetized with pentobarbital sodium; experiment: Effects on blood pressure, heart rate, cardiac contraction and dilation in rats anesthetized with pentobarbital sodium; format: in vivo, Wistar rats; set-up: unit not given here; settings: change after injection through femoral vein, '+' = increase, all others = decrease; for MBP: mean blood pressure: n = 3~5, doses mg/kg: 2, 8, 12: 10, 3-7, 9-11, 40-44: 5; for DBP: diastolic blood pressure / HR: heart rate / LVSP: left ventricular systolic pressure / SBP: systolic blood pressure / Vpm: the physiological velocity of contractile element shorting / −dp/dtmax: the maximal rate of the decrease of left ventricular pressure: mean, n = 3~5, doses mg/kg: 2, 8, 12: 10, 3-7, 9-11, 40-44: 5
Method: Biological activity experiment 1. The effects of 16 compounds represented by formula I on blood pressure, heart rate, cardiac contraction and dilation in rats anesthetized with pentobarbital sodium.
The methods of biological activity experiment 1 were as follows: Male Wistar rats, weighing 280±30 g were purchased from the experimental animal center of Academy of Military Medical Sciences. Rats were anesthetized with pentobarbital sodium (45 mg/kg) by peritoneal injection. A PE50 polyethylene catheter was inserted into the left ventricle through right carotid artery for cardiac function measurement with a pressure energe exchanger, wherein the signal is put into a SMUP-PC biosignal processing system. Cardiac functional parameters such as HR, LVSP, +dp/dtmax, −dp/dtmax and Vpm were recorded. Another two PE50 polyethylene catheters were inserted into the right femoral artery and vein respectively for blood pressure measurement wherein the artery cathether was linked to a four-channel physiology recorder (RM-6000) through a MPU-0.5A Type pressure energe exchanger, which recorded SBP, DBP and MBP, while the vein catheter was used for compound administration. The methods were described by Liu Wei et al: Liu Wei, Wang Hai, Xiao Wen-Bin. […] Bull Acad Mil Med Sci 1996;20(4):245˜248.

[3] = system: rats anesthetized with pentobarbital sodium; experiment: Antagonism of glibenclamide on the cardiovascular effects in anesthetized rats; format: in vivo, Wistar rats; settings: iv mg/kg: pinacidil 1.0, nifedipine 1.0, compound 1 0.5, means ± SE
Method: The methods of biological activity experiment 1 were as follows: Male Wistar rats, weighing 280±30 g were purchased from the experimental animal center of Academy of Military Medical Sciences. Rats were anesthetized with pentobarbital sodium (45 mg/kg) by peritoneal injection. A PE50 polyethylene catheter was inserted into the left ventricle through right carotid artery for cardiac function measurement with a pressure energe exchanger, wherein the signal is put into a SMUP-PC biosignal processing system. Cardiac functional parameters such as HR, LVSP, +dp/dtmax, −dp/dtmax and Vpm were recorded. Another two PE50 polyethylene catheters were inserted into the right femoral artery and vein respectively for blood pressure measurement wherein the artery cathether was linked to a four-channel physiology recorder (RM-6000) through a MPU-0.5A Type pressure energe exchanger, which recorded SBP, DBP and MBP, while the vein catheter was used for compound administration. The methods were described by Liu Wei et al: Liu Wei, Wang Hai, Xiao Wen-Bin.
The methods of Biological activity experiment 3 were the same as those described in the biological activity experiment 1.

[4] = A: after administration (30 min after pinacidil, 10 min nifedipine, 15 min compound 1), glibenclamide 20 iv pretreatment
[5] = B: before administration, glibenclamide 20 iv pretreatment ten minutes

## CC(C)NCC(O)COc1ccc(COCCOC(C)C)cc1 (centres unmarked) [bisoprolol]
[1]
  SBP at 1 h after administration: 211 ± 7 mmHg
  heart rates at 1 h: 283 ± 17
  SBP at 3 h after administration: 240 ± 7 mmHg
  heart rates at 3 h: 278 ± 16
  SBP at 5 h after administration: 242 ± 4 mmHg
  heart rates at 5 h: 335 ± 34
  SBP at 9 h after administration: 242 ± 3 mmHg
  heart rates at 9 h: 320 ± 36
  SBP at 12 h after administration: 243 ± 3 mmHg
  heart rates at 12 h: 341 ± 28
  SBP at 24 h after administration: 242 ± 6 mmHg
  heart rates at 24 h: 360 ± 7
  SBP base value: 242 ± 5 mmHg
  heart rates base value: 355 ± 17

## C[C@H](CS)C(=O)N1CCC[C@H]1C(=O)O [captopril]
[1]
  SBP at 1 h after administration: 207 ± 9 mmHg
  heart rates at 1 h: 380 ± 12
  SBP at 3 h after administration: 213 ± 11 mmHg
  heart rates at 3 h: 370 ± 24
  SBP at 5 h after administration: 233 ± 10 mmHg
  heart rates at 5 h: 366 ± 22
  SBP at 9 h after administration: 242 ± 4 mmHg
  heart rates at 9 h: 355 ± 12
  SBP at 12 h after administration: 241 ± 5 mmHg
  heart rates at 12 h: 355 ± 29
  SBP at 24 h after administration: 243 ± 4 mmHg
  heart rates at 24 h: 364 ± 12
  SBP base value: 243 ± 4 mmHg
  heart rates base value: 350 ± 17

## CC(C)NC(C)C(C)C (centres unmarked) [compound 7]
[2]
  MBP: mean blood pressure: 34
  DBP: diastolic blood pressure: 34
  HR: heart rate: 46
  LVSP: left ventricular systolic pressure: 184
  SBP: systolic blood pressure: 34
  Vpm: the physiological velocity of contractile element shorting: 1.08
  −dp/dtmax: the maximal rate of the decrease of left ventricular pressure: 226

## CNC(C)C [compound 8]
[2]
  MBP: mean blood pressure: 26
  DBP: diastolic blood pressure: 24
  HR: heart rate: 53
  LVSP: left ventricular systolic pressure: 121
  SBP: systolic blood pressure: 28
  Vpm: the physiological velocity of contractile element shorting: 1.45
  −dp/dtmax: the maximal rate of the decrease of left ventricular pressure: 124

## CCC(C)N (centres unmarked) [compound 10]
[2]
  MBP: mean blood pressure: 4
  DBP: diastolic blood pressure: 5
  HR: heart rate: 20
  LVSP: left ventricular systolic pressure: 21
  SBP: systolic blood pressure: 2
  Vpm: the physiological velocity of contractile element shorting: 0.25
  −dp/dtmax: the maximal rate of the decrease of left ventricular pressure: 27

## CCC(C)(C)NC [compound 11]
[2]
  MBP: mean blood pressure: 13
  DBP: diastolic blood pressure: 10
  HR: heart rate: 19
  LVSP: left ventricular systolic pressure: +159
  SBP: systolic blood pressure: 18
  Vpm: the physiological velocity of contractile element shorting: 0.1
  −dp/dtmax: the maximal rate of the decrease of left ventricular pressure: +86

## CCC(C)N (centres unmarked) [compound 12]
[2]
  MBP: mean blood pressure: 24
  DBP: diastolic blood pressure: 23
  HR: heart rate: 39
  LVSP: left ventricular systolic pressure: 112
  SBP: systolic blood pressure: 25
  Vpm: the physiological velocity of contractile element shorting: 0.58
  −dp/dtmax: the maximal rate of the decrease of left ventricular pressure: 129

## CC(C)C(C)(C)NC(=O)[C@@H](N)Cc1c[nH]c2ccccc12 [compound 40, N-tryptophanyl-2,3-dimethyl-2-butylamine]
[2]
  MBP: mean blood pressure: +0.7
  DBP: diastolic blood pressure: 0
  HR: heart rate: 6
  LVSP: left ventricular systolic pressure: +23
  SBP: systolic blood pressure: +2
  Vpm: the physiological velocity of contractile element shorting: +0.1
  −dp/dtmax: the maximal rate of the decrease of left ventricular pressure: +6

## CC[C@H](C)[C@H](N)C(=O)NC(C)(C)C(C)C [compound 41, N-isoleucyl-2,3-dimethyl-2-butylamine]
[2]
  MBP: mean blood pressure: +1
  DBP: diastolic blood pressure: +1
  HR: heart rate: 16
  LVSP: left ventricular systolic pressure: +4
  SBP: systolic blood pressure: +2
  Vpm: the physiological velocity of contractile element shorting: 0
  −dp/dtmax: the maximal rate of the decrease of left ventricular pressure: +2

## CC(C)C[C@H](N)C(=O)NC(C)(C)C(C)C [compound 42, N-leucyl-2,3-dimethyl-2-butylamine]
[2]
  MBP: mean blood pressure: +2
  DBP: diastolic blood pressure: +2
  HR: heart rate: +1
  LVSP: left ventricular systolic pressure: +10
  SBP: systolic blood pressure: +2
  Vpm: the physiological velocity of contractile element shorting: +0.18
  −dp/dtmax: the maximal rate of the decrease of left ventricular pressure: +13

## CC(C)C(C)(C)NC(=O)[C@@H](N)Cc1ccccc1 [compound 43, N-phenylalanyl-2,3-dimethyl-2-butylamine]
[2]
  MBP: mean blood pressure: +2
  DBP: diastolic blood pressure: +1
  HR: heart rate: +10
  LVSP: left ventricular systolic pressure: +31
  SBP: systolic blood pressure: +3
  Vpm: the physiological velocity of contractile element shorting: +0.13
  −dp/dtmax: the maximal rate of the decrease of left ventricular pressure: +10

## COC(=O)C1=C(C)NC(C)=C(C(=O)OC)C1c1ccccc1[N+](=O)[O-] [nifedipine]
[1]
  SBP at 1 h after administration: 186 ± 6 mmHg
  heart rates at 1 h: 410 ± 11
  SBP at 3 h after administration: 219 ± 12 mmHg
  heart rates at 3 h: 410 ± 31
  SBP at 5 h after administration: 235 ± 5 mmHg
  heart rates at 5 h: 367 ± 24
  SBP at 9 h after administration: 240 ± 6 mmHg
  heart rates at 9 h: 365 ± 13
  SBP at 12 h after administration: 242 ± 4 mmHg
  heart rates at 12 h: 365 ± 16
  SBP at 24 h after administration: 242 ± 4 mmHg
  heart rates at 24 h: 364 ± 22
  SBP base value: 242 ± 5 mmHg
  heart rates base value: 352 ± 19
[3]; [4]
  DBP: 62 ± 7 mmHg
  LVSP: 113 ± 7 mmHg
  MBP: 76 ± 8 mmHg
  Vpm: 4.2 ± 0.5 /a
[3]; [5]
  DBP: 95 ± 8 mmHg
  LVSP: 131 ± 6 mmHg
  MBP: 111 ± 7 mmHg
  Vpm: 5.7 ± 0.1 /a
